Experimental data published in patent publication US20250345447A1, “PHARMACEUTICAL COMPOSITION OF RECOMBINANT ANTI-HUMAN CLDN18.2 MONOCLONAL ANTIBODY-MMAE CONJUGATE” (CSPC MEGALITH BIOPHARMACEUTICAL CO., LTD., priority 2022, published 2025).

Tests used:
[1] = system: human pancreatic cancer Bxpc3-18.2; experiment: Bxpc3-18.2 nude mouse xenograft tumor model, gemcitabine as control; type: in vivo
Method: When the tumor grew to a volume of about 100 mm^3 (day 39 after inoculation), 48 animals with good tumor growth were selected and equally divided into 6 groups (day 0) according to the tumor volume, with 8 animals in each group. […] The tumor diameters were measured twice a week, the mice were weighed, and the data were recorded. The tumor growth was dynamically observed by measuring the tumor diameters at different times after administration. The experiment was ended on day 28, the mice were asphyxiated with carbon dioxide, and then the tumors were stripped off and weighed.

[2] = system: human gastric cancer NUGC-4-18.2; experiment: NUGC-4-18.2 nude mouse xenograft tumor model, cisplatin as control; conditions: 6 mg/kg i.v. qw×3, day 20
Method: 2) In this experiment, human gastric cancer NUGC-4-18.2 was selected to construct a nude mouse xenograft tumor model. When the tumor grew to a volume of about 120 mm^3 (day 6 after inoculation), 64 animals with good tumor growth were selected and equally divided into 8 groups (day 0) according to the tumor volume, with 8 animals in each group. […] The tumor diameters were measured twice a week, the mice were weighed, and the data were recorded. The change in the tumor growth was dynamically observed by measuring the tumor diameters at different times after administration. The experiment was ended on day 20, the animals were asphyxiated with carbon dioxide, and then the tumors were stripped off and weighed.

[3] = target: T1, cynomolgus monkey CLDN18.2 (cynomolgus monkey, UniProt A0A2K5VVB4 1-261); experiment: flow cytometry on CHO-K1-cynomolgus monkey CLDN18.2 cells, four-parameter fit; given as ED50
T1 chain: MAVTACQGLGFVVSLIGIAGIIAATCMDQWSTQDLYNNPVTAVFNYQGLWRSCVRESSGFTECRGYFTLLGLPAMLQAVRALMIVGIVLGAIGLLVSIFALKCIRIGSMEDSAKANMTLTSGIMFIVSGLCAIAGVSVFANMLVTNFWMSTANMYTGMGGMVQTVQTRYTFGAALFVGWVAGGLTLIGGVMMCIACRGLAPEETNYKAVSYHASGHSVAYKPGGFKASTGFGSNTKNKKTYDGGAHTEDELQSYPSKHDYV

human CLDN18.2 (human) = human CLDN18.2 (human) (UniProt P56856); experiment: flow cytometry on HEK293-human CLDN18.2 cells, four-parameter fit; given as ED50
mouse CLDN18.2 (mouse) = mouse CLDN18.2 (mouse) (UniProt P56857); experiment: flow cytometry on HEK293-mouse CLDN18.2 cells, four-parameter fit; given as ED50

Nc1ccn([C@@H]2O[C@H](CO)[C@@H](O)C2(F)F)c(=O)n1 [Gemcitabine, gemcitabine, reference compound] was tested, and the “tumor weight inhibition rate” value ([1]; 50 mg/kg i.v. biw×4, day 28) was 51.0% and the “tumor growth compared with the solvent control group” value ([1]; SYJS001-ADC 2, 4 and 8 mg/kg single, GEM 50 mg/kg biw×4, P<0.01) was “significantly inhibited”.

In the case of N.N.[Cl][Pt][Cl] [cisplatin, reference compound], the “tumor weight inhibition rate” value [2] is reported as 66.5%.

B1: SYJS001-ADC (recombinant anti-human CLDN18.2 monoclonal antibody-MMAE conjugate) (antibody, human IgG1, kappa, V domains shown)
VH: EVQLSESGGALVQPGESLRLSCAASGFTFSSYAMTWVRQAPGKGLEWVSSLSGSGRSTYYAASIKGRFTISRDNSKNTLYLQMSSLRAEDTAIYYCAKSLSYYHYYFDYWGQGTLVTVSS
VL: DIQLTQSPSFLSASVGDRVPITCRASQDISNYLAWYQQKPGKAPKLLIYSASTLQSGVPSRFSGSGSGTEFTLTISSLQPEDFASYHCQQVKTYPLTFGGGTKVEIKR
modifications: one molecule of MMAE conjugated via the linker NH2-PEG3-Val-Cit (LND1002) by an amide (isopeptide) bond to Q298 (i.e., Q295 according to Kabat numbering) of each heavy chain; mean DAR 2.0
notes: also called anti-CLDN18.2 antibody-drug conjugate SYJS001-ADC
B1 was tested, and the EC50 [3] was 0.648 µg/mL, the EC50 (human CLDN18.2 (human)) was 0.439 µg/mL and the EC50 (mouse CLDN18.2 (mouse)) was 0.717 µg/mL.
